Reference: patent publication US9045491B2, “Thienyl [3,2-D] pyrimidin-4-one compounds, preparation method, pharmaceutical compositions and use thereof” (SHANGHAI INSTITUTE OF MATERIA MEDICA, CHINESE ACADEMY OF …, priority 2011, dated 2015)
Several values for one entry are separate records, joined by “and”; a condition that tells them apart may be missing. Identical values can stand only once. Entries after “also recorded” stand apart in the source; their conditions may differ.

Experiments:
normal ICR mouse = assay: Oral glucose tolerance test (OGTT), acute hypoglycemic effect of single oral dose; format: in vivo
[1] = Pharmacokinetics of DC291407 and metabolites in rats (LC-MS/MS); format: in vivo, Sprague-Dawley (SD) rats
Description: The concentration of metabolite M1 (4071001), metabolite M2 (407002) or metabolite M3 (407003) in plasma was determined by LC-MS/MS method after DC291407 was administrated to the rats through gavage and intravenous injection.
The LC/MS/MS used is triple quadruple LC/MS 6460 from Agilent.
Six healthy male Sprague-Dawley (SD) rats with the weight of 180-220 g were randomly divided into 2 groups. The rats in each group were administrated with the tested compound by gavage or intravenous injection, respectively.
The compound was dissolved in 6.7% DMSO/6.7% Tween/86.6% normal saline.
The rats fasted for 12 h and can drink water ad libitum. 2 h after dosing, the rats were provided with food all together. The time point for collecting blood samples and the sample processing are listed as follows.
Intragastric administration: 0.25, 0.5, 1.0, 2.0, 3.0, 4.0, 6.0, 8.0 and 24 h after administration;
Intravenous administration: 5 min, 0.25, 0.5, 1.0, 2.0, 4.0, 6.0, 8.0 and 24 h after administration. At above time point, 0.3 ml venous blood was taken from retrobulbar venous plexus of the rat and loaded into heparinization tube. After centrifuged at 11000 rpm for 5 min, the plasma was separated and frozen at −20° C. in a refrigerator.

[2] = gavage 20 mg/kg DC291407, average of 3 animals
[3] = gavage 20 mg/kg DC291407, individual animals, 20 mg/kg
[4] = gavage 20 mg/kg DC291407, time 0 h, individual animals, BLQ = below lower quantification
[5] = gavage 20 mg/kg DC291407, time 0.25 h, individual animals, 20 mg/kg
[6] = gavage 20 mg/kg DC291407, time 0.5 h, individual animals, 20 mg/kg
[7] = intravenous injection 10 mg/kg DC291407, average of 3 animals

Compound: COC(=O)c1cc2nc(N3CCCC(N)C3)n(Cc3ccccc3C#N)c(=O)c2s1 (stereo not drawn) [DC291407]
- hypoglycemic ability in vivo, oral glucose tolerance test after multiple single-dose administration (normal ICR mouse; single administration at multiple doses, FIGS. 11-12): comparable to that of Alogliptin
- hypoglycemic ability in vivo, oral glucose tolerance test (normal ICR mouse; single dose 3 mg/kg by gavage, glucose 2.5 g/kg after 6 hours, FIGS. 7-10): comparable to that of Alogliptin
- concentration of M2 in plasma samples collected within one hour after administration ([1]; gavage 20 mg/kg DC291407): below 20 ng/ml
- metabolite M3 in plasma ([1]; gavage 20 mg/kg DC291407): can not be detected
- prototype compound in plasma ([1]; gavage 20 mg/kg DC291407): can not be detected
- main component in plasma ([1]; gavage 20 mg/kg DC291407, 20 mg/kg): mainly contained hydrolysis-metabolite M1; also recorded: mainly contained hydrolysis-metabolite Ml
- AUC0-t of metabolite M1 [1, 2]: 9860 ng·h/mL
- AUC0-∞ of metabolite M1 [1, 2]: 9968 ng·h/mL
- Cmax of metabolite M1 [1, 2]: 6039 ng/mL
- MRT of metabolite M1 [1, 2]: 2.58 h
- Tmax of metabolite M1 [1, 2]: 19.8 min
- t1/2 of metabolite M1 [1, 2]: 5.63 h
- F, absolute bioavailability ([1]; gavage 20 mg/kg DC291407, dose-normalized, based on AUC of metabolite M1): 22.1%
- AUC0-t of metabolite M1 [1, 3]: 8191 ng·h/mL and 5758 ng·h/mL and 15633 ng·h/mL
- AUC0-∞ of metabolite M1 [1, 3]: 8292 ng·h/mL and 5907 ng·h/mL and 15706 ng·h/mL
- Cmax of metabolite M1 [1, 3]: 4435 ng/mL and 3427 ng/mL and 10255 ng/mL
- MRT of metabolite M1 [1, 3]: 2.86 h and 3.15 h and 1.74 h
- Tmax of metabolite M1 [1, 3]: 30 min and 15 min
- t1/2 of metabolite M1 [1, 3]: 5.37 h and 7.97 h and 3.55 h
- Plasma concentration of metabolite M1 [1, 4]: BLQ
- Plasma concentration of metabolite M2 [1, 4]: BLQ
- Plasma concentration of metabolite M1 ([1]; gavage 20 mg/kg DC291407, time 0.25 h, average of 3 animals): 5712 ng/mL
- Plasma concentration of metabolite M1 [1, 5]: 3454 ng/mL and 3427 ng/mL and 10255 ng/mL
- Plasma concentration of metabolite M2 [1, 5]: 3.87 ng/mL and 3.24 ng/mL and 16.3 ng/mL
- Plasma concentration of metabolite M1 ([1]; gavage 20 mg/kg DC291407, time 0.5 h, average of 3 animals): 5975 ng/mL
- Plasma concentration of metabolite M1 [1, 6]: 4435 ng/mL and 3404 ng/mL and 10087 ng/mL
- Plasma concentration of metabolite M2 [1, 6]: 4.79 ng/mL and 3.94 ng/mL and 16.9 ng/mL
- Plasma concentration of metabolite M1 ([1]; gavage 20 mg/kg DC291407, time 1.0 h, average of 3 animals): 3962 ng/mL
- Plasma concentration of metabolite M1 ([1]; gavage 20 mg/kg DC291407, time 1.0 h, individual animals, 20 mg/kg): 3326 ng/mL and 1771 ng/mL and 6789 ng/mL
- Plasma concentration of metabolite M2 ([1]; gavage 20 mg/kg DC291407, time 1.0 h, individual animals, BLQ = below lower quantification, 20 mg/kg): 3.88 ng/mL and BLQ and 10.7 ng/mL
- Plasma concentration of metabolite M1 ([1]; gavage 20 mg/kg DC291407, time 2.0 h, average of 3 animals): 1117 ng/mL
- Plasma concentration of metabolite M1 ([1]; gavage 20 mg/kg DC291407, time 2.0 h, individual animals, 20 mg/kg): 690 ng/mL and 1091 ng/mL and 1569 ng/mL
- Plasma concentration of metabolite M2 ([1]; gavage 20 mg/kg DC291407, time 2.0 h, individual animals, BLQ = below lower quantification): BLQ
- Plasma concentration of metabolite M1 ([1]; gavage 20 mg/kg DC291407, time 3.0 h, average of 3 animals): 549 ng/mL
- Plasma concentration of metabolite M1 ([1]; gavage 20 mg/kg DC291407, time 3.0 h, individual animals, 20 mg/kg): 476 ng/mL and 299 ng/mL and 872 ng/mL
- Plasma concentration of metabolite M2 ([1]; gavage 20 mg/kg DC291407, time 3.0 h, individual animals, BLQ = below lower quantification): BLQ
- Plasma concentration of metabolite M1 ([1]; gavage 20 mg/kg DC291407, time 4.0 h, average of 3 animals): 390 ng/mL
- Plasma concentration of metabolite M1 ([1]; gavage 20 mg/kg DC291407, time 4.0 h, individual animals, 20 mg/kg): 500 ng/mL and 105 ng/mL and 565 ng/mL
- Plasma concentration of metabolite M2 ([1]; gavage 20 mg/kg DC291407, time 4.0 h, individual animals, BLQ = below lower quantification): BLQ
- Plasma concentration of metabolite M1 ([1]; gavage 20 mg/kg DC291407, time 6.0 h, average of 3 animals): 123 ng/mL
- Plasma concentration of metabolite M1 ([1]; gavage 20 mg/kg DC291407, time 6.0 h, individual animals, 20 mg/kg): 138 ng/mL and 57.3 ng/mL and 173 ng/mL
- Plasma concentration of metabolite M2 ([1]; gavage 20 mg/kg DC291407, time 6.0 h, individual animals, BLQ = below lower quantification): BLQ
- Plasma concentration of metabolite M1 ([1]; gavage 20 mg/kg DC291407, time 8.0 h, average of 3 animals): 68.5 ng/mL
- Plasma concentration of metabolite M1 ([1]; gavage 20 mg/kg DC291407, time 8.0 h, individual animals, 20 mg/kg): 97.1 ng/mL and 58.9 ng/mL and 49.5 ng/mL
- Plasma concentration of metabolite M2 ([1]; gavage 20 mg/kg DC291407, time 8.0 h, individual animals, BLQ = below lower quantification): BLQ
- Plasma concentration of metabolite M1 ([1]; gavage 20 mg/kg DC291407, time 24 h, average of 3 animals): 13.4 ng/mL
- Plasma concentration of metabolite M1 ([1]; gavage 20 mg/kg DC291407, time 24 h, individual animals, 20 mg/kg): 13.0 ng/mL (2×) and 14.3 ng/mL
- Plasma concentration of metabolite M2 ([1]; gavage 20 mg/kg DC291407, time 24 h, individual animals, BLQ = below lower quantification): BLQ
- main component in plasma ([1]; intravenous 10 mg/kg DC291407): mainly contained hydrolysis-metabolite M1
- metabolite M2 in plasma ([1]; intravenous 10 mg/kg DC291407): relatively low concentration
- prototype compound in plasma ([1]; intravenous 10 mg/kg DC291407): relatively low concentration
- metabolite M3 in plasma ([1]; intravenous 10 mg/kg DC291407, 10 mg/kg): can not be detected; also recorded: no metabolite M3 can be detected
- AUC0-t of metabolite M1 [1, 7]: 22274 ng·h/mL
- AUC0-t of prototype drug [1, 7]: 36.0 ng·h/mL
- AUC0-∞ of metabolite M1 [1, 7]: 22517 ng·h/mL
- AUC0-∞ of prototype drug [1, 7]: 39.9 ng·h/mL
- CL of prototype drug [1, 7]: 260 L/h/kg
- Cmax of metabolite M1 [1, 7]: 45028 ng/mL
- MRT of metabolite M1 [1, 7]: 1.13 h
- MRT of prototype drug [1, 7]: 46.8 min
